Measured values: US12723063B2, “GIPR-agonist compounds” (Eli Lilly and Company, priority 2019, dated 2026)
*1 amine or outer side, *2 acyl side, *3 side chain or, on linkers, in order; H or OH if unused. Where a SMILES comes first, the peptide text is derived from it. Side-chain parts run from the residue outwards. [ ]: non-standard residue; d: D form. The star is where a group is joined. C20 diacid = O=C(O)CCCCCCCCCCCCCCCCCCC(=O)*; C18 diacid = O=C(O)CCCCCCCCCCCCCCCCC(=O)*; γGlu = O=C(O)[C@H](CCC(=O)[*:2])N[*:1]; αMeF = C[C@](N)(Cc1ccccc1)C(=O)O; 4Pal = N[C@@H](Cc1ccncc1)C(=O)O; AEEA = NCCOCCOCC(=O)O; Aib = CC(C)(N)C(=O)O

Target: T1, human GcgR (Homo sapiens, UniProt P47871)
T1 construct: expressed in transfected cells; crude membranes
T1 sequence (P47871 26-477): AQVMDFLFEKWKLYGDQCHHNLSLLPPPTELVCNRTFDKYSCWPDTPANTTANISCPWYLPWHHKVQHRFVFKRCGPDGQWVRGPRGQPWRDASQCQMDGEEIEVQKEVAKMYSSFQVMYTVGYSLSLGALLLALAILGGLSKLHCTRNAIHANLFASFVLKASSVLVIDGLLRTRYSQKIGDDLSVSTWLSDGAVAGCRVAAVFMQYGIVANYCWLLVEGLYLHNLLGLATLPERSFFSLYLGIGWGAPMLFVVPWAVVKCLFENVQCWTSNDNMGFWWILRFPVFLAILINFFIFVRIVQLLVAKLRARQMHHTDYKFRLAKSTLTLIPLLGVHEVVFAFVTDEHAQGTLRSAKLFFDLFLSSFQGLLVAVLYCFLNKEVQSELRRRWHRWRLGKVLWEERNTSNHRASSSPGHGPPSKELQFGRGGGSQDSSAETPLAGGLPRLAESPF
Assay: [125I]-Glucagon binding, SPA with WGA beads, 0.1% bacitracin
Settings: geometric mean, read-out: hGcgR Ki
Method in brief: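 SPA competition binding with WGA beads on crude membranes from HEK293 cells stably expressing hGcgR. Buffer: 25 mM HEPES pH 7.4, 2.5 mM CaCl2, 1 mM MgCl2, 0.1% bacitracin, 0.003% Tween-20; 10-point 3-fold dilutions, NSB with 1 μM Gcg.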

In the case of `CC[C@H](C)[C@H](NC(=O)[C@H](Cc1ccccc1)NC(=O)[C@@H](NC(=O)CNC(=O)[C@H](CCC(=O)O)NC(=O)C(C)(C)NC(=O)[C@@H](N)Cc1ccc(O)cc1)[C@@H](C)O)C(=O)N[C@@H](CO)C(=O)N[C@@H](CC(=O)O)C(=O)N[C@@H](Cc1ccc(O)cc1)C(=O)N[C@@H](CO)C(=O)N[C@H](C(=O)NC(C)(C)C(=O)N[C@@H](CC(C)C)C(=O)N[C@@H](CC(=O)O)C(=O)N[C@@H](CCCCN)C(=O)N[C@@H](CCCCNC(=O)COCCOCCNC(=O)COCCOCCNC(=O)CC[C@H](NC(=O)CCCCCCCCCCCCCCCCC(=O)O)C(=O)O)C(=O)N[C@@H](Cc1c[nH]cn1)C(=O)N[C@@H](CCC(N)=O)C(=O)NC(C)(C)C(=O)N[C@@H](CC(=O)O)C(=O)N[C@@H](Cc1ccccc1)C(=O)N[C@H](C(=O)N[C@@H](CCC(=O)O)C(=O)N[C@@H](Cc1ccncc1)C(=O)N[C@@H](CC(C)C)C(=O)N[C@@H](CC(C)C)C(=O)N[C@@H](C)C(=O)NCC(=O)NCC(=O)N1CCC[C@H]1C(=O)N[C@@H](CO)C(=O)N[C@@H](CO)C(=O)NCC(=O)N[C@@H](C)C(=O)N1CCC[C@H]1C(=O)N1CCC[C@H]1C(=O)N1CCC[C@H]1C(=O)N[C@@H](CO)C(N)=O)C(C)C)[C@@H](C)CC` [Example 24], the Ki is reported as over 0.96 µM.
Compound `CC[C@H](C)[C@H](NC(=O)[C@H](CO)NC(=O)[C@H](Cc1ccc(O)cc1)NC(=O)[C@H](CC(=O)O)NC(=O)[C@H](CO)NC(=O)[C@@H](NC(=O)[C@H](Cc1ccccc1)NC(=O)[C@@H](NC(=O)CNC(=O)[C@H](CCC(=O)O)NC(=O)[C@@H](C)NC(=O)[C@@H](N)Cc1ccc(O)cc1)[C@@H](C)O)[C@@H](C)CC)C(=O)N[C@@H](CC(C)C)C(=O)N[C@@H](CC(C)C)C(=O)N[C@@H](CC(=O)O)C(=O)N[C@@H](CCCCN)C(=O)N[C@@H](CCCCNC(=O)COCCOCCNC(=O)COCCOCCNC(=O)CC[C@H](NC(=O)CCCCCCCCCCCCCCCCCCC(=O)O)C(=O)O)C(=O)N[C@@H](C)C(=O)N[C@@H](CCC(N)=O)C(=O)N[C@@H](CCC(N)=O)C(=O)N[C@@H](CC(=O)O)C(=O)N[C@@H](Cc1ccccc1)C(=O)N[C@H](C(=O)N[C@@H](CC(N)=O)C(=O)N[C@@H](Cc1c[nH]c2ccccc12)C(=O)N[C@@H](CC(C)C)C(=O)N[C@@H](CC(C)C)C(=O)N[C@@H](C)C(=O)NCC(=O)NCC(=O)N1CCC[C@H]1C(=O)N[C@@H](CO)C(=O)N[C@@H](CO)C(=O)NCC(=O)N[C@@H](C)C(=O)N1CCC[C@H]1C(=O)N1CCC[C@H]1C(=O)N1CCC[C@H]1C(=O)N[C@@H](CO)C(N)=O)C(C)C` [Example 12] (H-Y[dA]EGTFISDYSILLDKK([AEEA-AEEA-γGlu-C20 diacid])AQQDFVNWLLAGGPSSGAPPPS-NH2) has a Ki of 0.134 µM.
For `CC[C@H](C)[C@H](NC(=O)[C@H](CO)NC(=O)[C@H](Cc1ccc(O)cc1)NC(=O)[C@H](CC(=O)O)NC(=O)[C@H](CO)NC(=O)[C@@H](NC(=O)[C@H](Cc1ccccc1)NC(=O)[C@@H](NC(=O)CNC(=O)[C@H](CCC(=O)O)NC(=O)C(C)(C)NC(=O)[C@@H](N)Cc1ccc(O)cc1)[C@@H](C)O)[C@@H](C)CC)C(=O)N[C@@H](C)C(=O)N[C@@H](CC(C)C)C(=O)N[C@@H](CC(=O)O)C(=O)N[C@@H](CCCCN)C(=O)N[C@@H](CCCCNC(=O)COCCOCCNC(=O)COCCOCCNC(=O)CC[C@H](NC(=O)CCCCCCCCCCCCCCCCC(=O)O)C(=O)O)C(=O)N[C@@H](Cc1c[nH]cn1)C(=O)N[C@@H](CCC(N)=O)C(=O)NC(C)(C)C(=O)N[C@@H](CC(=O)O)C(=O)N[C@@H](Cc1ccccc1)C(=O)N[C@H](C(=O)N[C@@H](CCC(=O)O)C(=O)N[C@@H](Cc1ccncc1)C(=O)N[C@@H](CC(C)C)C(=O)N[C@@H](CC(C)C)C(=O)N[C@@H](C)C(=O)NCC(=O)NCC(=O)N1CCC[C@H]1C(=O)N[C@@H](CO)C(=O)N[C@@H](CO)C(=O)NCC(=O)N[C@@H](C)C(=O)N1CCC[C@H]1C(=O)N1CCC[C@H]1C(=O)N1CCC[C@H]1C(=O)N[C@@H](CO)C(N)=O)C(C)C` [Example 21] (H-Y[Aib]EGTFISDYSIALDKK([AEEA-AEEA-γGlu-C18 diacid])HQ[Aib]DFVE[4Pal]LLAGGPSSGAPPPS-NH2), the Ki was over 1.53 µM.
Work on `CC[C@H](C)[C@H](NC(=O)[C@H](CO)NC(=O)[C@H](Cc1ccc(O)cc1)NC(=O)[C@H](CC(=O)O)NC(=O)[C@H](CO)NC(=O)[C@@H](NC(=O)[C@](C)(Cc1ccccc1)NC(=O)[C@@H](NC(=O)CNC(=O)[C@H](CCC(=O)O)NC(=O)C(C)(C)NC(=O)[C@@H](N)Cc1ccc(O)cc1)[C@@H](C)O)[C@@H](C)CC)C(=O)N[C@@H](C)C(=O)N[C@@H](CC(C)C)C(=O)N[C@@H](CC(=O)O)C(=O)N[C@@H](CCCCN)C(=O)N[C@@H](CCCCNC(=O)COCCOCCNC(=O)COCCOCCNC(=O)CC[C@H](NC(=O)CCCCCCCCCCCCCCCCC(=O)O)C(=O)O)C(=O)N[C@@H](Cc1c[nH]cn1)C(=O)N[C@@H](CCC(N)=O)C(=O)NC(C)(C)C(=O)N[C@@H](CC(=O)O)C(=O)N[C@@H](Cc1ccccc1)C(=O)N[C@H](C(=O)N[C@@H](CCC(=O)O)C(=O)N[C@@H](Cc1ccncc1)C(=O)N[C@@H](CC(C)C)C(=O)N[C@@H](CC(C)C)C(=O)N[C@@H](C)C(=O)NCC(=O)NCC(=O)N1CCC[C@H]1C(=O)N[C@@H](CO)C(=O)N[C@@H](CO)C(=O)NCC(=O)N[C@@H](C)C(=O)N1CCC[C@H]1C(=O)N1CCC[C@H]1C(=O)N1CCC[C@H]1C(=O)N[C@@H](CO)C(N)=O)C(C)C` [Example 23] (H-Y[Aib]EGT[αMeF]ISDYSIALDKK([AEEA-AEEA-γGlu-C18 diacid])HQ[Aib]DFVE[4Pal]LLAGGPSSGAPPPS-NH2) yielded a Ki of 0.323 µM.
In the case of `CC[C@H](C)[C@H](NC(=O)[C@H](CO)NC(=O)[C@H](Cc1ccc(O)cc1)NC(=O)[C@H](CC(=O)O)NC(=O)[C@H](CO)NC(=O)[C@@H](NC(=O)[C@H](Cc1ccccc1)NC(=O)[C@@H](NC(=O)CNC(=O)[C@H](CCC(=O)O)NC(=O)[C@@H](C)NC(=O)[C@@H](N)Cc1ccc(O)cc1)[C@@H](C)O)[C@@H](C)CC)C(=O)N[C@@H](CC(C)C)C(=O)N[C@@H](CC(C)C)C(=O)N[C@@H](CC(=O)O)C(=O)N[C@@H](CCCCN)C(=O)N[C@@H](CCCCNC(=O)COCCOCCNC(=O)COCCOCCNC(=O)CC[C@H](NC(=O)CCCCCCCCCCCCCCCCC(=O)O)C(=O)O)C(=O)N[C@@H](C)C(=O)N[C@@H](CCC(N)=O)C(=O)NC(C)(C)C(=O)N[C@@H](CCC(=O)O)C(=O)N[C@@H](Cc1ccccc1)C(=O)N[C@H](C(=O)N[C@@H](CC(N)=O)C(=O)N[C@@H](Cc1c[nH]c2ccccc12)C(=O)N[C@@H](CC(C)C)C(=O)N[C@@H](CC(C)C)C(=O)N[C@@H](CCC(=O)O)C(=O)NCC(=O)NCC(=O)N1CCC[C@H]1C(=O)N[C@@H](CO)C(=O)N[C@@H](CO)C(=O)NCC(=O)N[C@@H](C)C(=O)N1CCC[C@H]1C(=O)N1CCC[C@H]1C(=O)N1CCC[C@H]1C(=O)N[C@@H](CO)C(N)=O)C(C)C` [Example 28] (H-Y[dA]EGTFISDYSILLDKK([AEEA-AEEA-γGlu-C18 diacid])AQ[Aib]EFVNWLLEGGPSSGAPPPS-NH2), the Ki is reported as 0.0868 µM.
